From publication PMC11249626, “Fluorophore-Labeled Pyrrolones Targeting the Intracellular Allosteric Binding Site of the Chemokine Receptor CCR1” (ACS Pharmacology & Translational Science, 2024)

Biological target: T1, CCR9 (Homo sapiens, UniProt P51686)
T1 construct: host or cells: HEK293T, transient
T1 sequence (P51686 1-369): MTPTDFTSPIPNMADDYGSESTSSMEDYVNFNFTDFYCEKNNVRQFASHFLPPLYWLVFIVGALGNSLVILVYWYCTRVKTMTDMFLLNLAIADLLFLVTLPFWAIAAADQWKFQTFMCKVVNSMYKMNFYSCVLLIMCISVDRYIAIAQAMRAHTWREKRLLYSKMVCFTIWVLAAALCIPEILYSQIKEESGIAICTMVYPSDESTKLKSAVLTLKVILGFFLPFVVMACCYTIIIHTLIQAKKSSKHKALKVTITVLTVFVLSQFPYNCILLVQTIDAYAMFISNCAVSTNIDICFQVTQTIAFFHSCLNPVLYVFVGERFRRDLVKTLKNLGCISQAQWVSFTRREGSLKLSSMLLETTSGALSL
Assay: Membrane-based NanoBRET saturation binding assay, CCR9_Nluc membranes
Conditions: compared with CCR1
Protocol: Emission spectra of Nluc -labeled CCR1 (CCR1_Nluc) protein: The emission spectra of CCR1_Nluc has already been reported by Toy et al.1 For a confirmation of the reported data with new CCR1_Nluc membrane batches, furimazine (Promega, Mannheim, Germany 1:2000) was added to the membrane preparations (2 µg protein/well). […]
NanoBRET binding assays: Membrane-based NanoBRET saturation assay: For the establishment of our NanoBRET binding assay, we referred to recently published protocols. […]
Then, 20 µL of the membrane preparations diluted in assay buffer (3 µg total protein/well) were added and the plates were incubated for 90 min at 37 °C. Subsequently, 5 µL of a furimazine solution (Promega, Mannheim, Germany, final assay dilution: 1:5,000) were added to each well (final assay volume: 35 µL) before measuring luminescence with a CLARIOstar microplate reader using 620/10 nm and 475/30 nm emission filters after 5 min of incubation in the dark. Bioluminescence resonance energy transfer (BRET) was determined as the ratio of acceptor fluorescence and donor luminescence. […] Specific binding signals were calculated as a difference of total and non-specific binding. If required, netBRET values were calculated as the difference between total BRET values and the values obtained in the absence of a fluorescent ligand. […]

Binding signal for CCR9: much weaker
Compound: CN(C)c1ccc2c(-c3cc(C(=O)NCCOCCOCc4cn(CCCC(=O)C5=C(O)C(=O)N(c6ccc(Br)cc6F)C5C5CCCCC5)nn4)ccc3C(=O)[O-])c3ccc(=[N+](C)C)cc-3oc2c1 (stereo not shown) [compound 12]
